Results as given in US20090029949A1, “GPCR Ligands Identified by Computational Modeling” (priority 2006, published 2009).

Tests used:
S1P1 mutant T5.49G = molecular target: T1, S1P1 mutant T5.49G (Homo sapiens, UniProt P21453, T211G); test: [35S]GTPγS binding, S1P1 T5.49G; type: biochemical; conditions: S1P-induced, S1P1 T5.49G in RH7777 cells
T1 construct: expressed in transfected cells; host or cells: RH7777 (transient, pcDNA3.1)
Description: (§1) RH7777 and HEK-293 cells (ATCC, Manassas, Va.) were maintained in Dulbecco's modified minimal essential medium (DMEM) containing 10% fetal bovine serum (Hyclone, Logan, Utah). Cells (2×10^6) were transfected with 2 μg of plasmid DNA with Effectene (Qiagen, Valencia, Calif.) according to the manufacturer's instructions, for 24 h. Before ligand binding and receptor activation assays, the cells were washed twice with serum-free DMEM and serum-starved for at least 6 h.
(§2) S1P1 Receptor Activation Assays Receptor functional assays were performed in transiently transfected RH7777 cells by measuring S1P-activated [^35S]GTPγS binding as previously described (28).

S1P1 mutant L3.36G = molecular target: T2, S1P1 mutant L3.36G (Homo sapiens, UniProt P21453, L128G); test: [35S]GTPγS binding, S1P1 L3.36G; type: biochemical; conditions: S1P-induced, S1P1 L3.36G in RH7777 cells
T2 construct: expressed in transfected cells; host or cells: RH7777 (transient, pcDNA3.1)
T2 sequence (P21453 whole entry L128G): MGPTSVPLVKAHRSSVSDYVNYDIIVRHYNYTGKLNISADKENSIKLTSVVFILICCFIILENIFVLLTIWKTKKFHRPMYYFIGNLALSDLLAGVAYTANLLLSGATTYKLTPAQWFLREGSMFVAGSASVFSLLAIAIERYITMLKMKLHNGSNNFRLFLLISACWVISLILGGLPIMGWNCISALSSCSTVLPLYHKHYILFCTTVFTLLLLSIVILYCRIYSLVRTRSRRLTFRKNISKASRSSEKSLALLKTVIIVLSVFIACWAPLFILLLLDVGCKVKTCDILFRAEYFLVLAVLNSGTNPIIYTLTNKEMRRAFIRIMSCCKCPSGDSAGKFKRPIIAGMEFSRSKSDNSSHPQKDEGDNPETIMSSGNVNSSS
Description: as §1, §2

S1P1 mutant C5.44I = molecular target: T3, S1P1 mutant C5.44I (Homo sapiens, UniProt P21453, C206I); test: [35S]GTPγS binding, S1P1 C5.44I; type: biochemical; conditions: S1P-induced, S1P1 C5.44I in RH7777 cells
T3 construct: expressed in transfected cells; host or cells: RH7777 (transient, pcDNA3.1)
T3 sequence (P21453 whole entry C206I): as the sequence (P21453 whole entry L128G) above, with G128L, C206I counted along it
Description: as §1, §2

S1P1 mutant T5.45G = molecular target: T4, S1P1 mutant T5.45G (Homo sapiens, UniProt P21453, T207G); test: [35S]GTPγS binding, S1P1 T5.45G; type: biochemical; conditions: S1P-induced, S1P1 T5.45G in RH7777 cells
T4 construct: expressed in transfected cells; host or cells: RH7777 (transient, pcDNA3.1)
T4 sequence (P21453 whole entry T207G): as the sequence (P21453 whole entry L128G) above, with G128L, T207G counted along it
Description: as §1, §2

S1P1 mutant L5.51E = molecular target: T5, S1P1 mutant L5.51E (Homo sapiens, UniProt P21453, L213E); test: [35S]GTPγS binding, S1P1 L5.51E; type: biochemical; conditions: S1P-induced, S1P1 L5.51E in RH7777 cells
T5 construct: expressed in transfected cells; host or cells: RH7777 (transient, pcDNA3.1)
T5 sequence (P21453 whole entry L213E): as the sequence (P21453 whole entry L128G) above, with G128L, L213E counted along it
Description: as §1, §2

S1P1 mutant W6.48A = molecular target: T6, S1P1 mutant W6.48A (Homo sapiens, UniProt P21453, W269A); test: [35S]GTPγS binding, S1P1 W6.48A; type: biochemical; conditions: S1P-induced, S1P1 W6.48A in RH7777 cells
T6 construct: expressed in transfected cells
T6 sequence (P21453 whole entry W269A): as the sequence (P21453 whole entry L128G) above, with G128L, W269A counted along it
Description: as §1, §2

S1P1 mutant M3.32G = molecular target: T7, S1P1 mutant M3.32G (Homo sapiens, UniProt P21453, M124G); test: [35S]GTPγS binding, S1P1 M3.32G; type: biochemical; conditions: S1P-induced, S1P1 M3.32G in RH7777 cells
T7 construct: expressed in transfected cells; host or cells: RH7777
T7 sequence (P21453 whole entry M124G): as the sequence (P21453 whole entry L128G) above, with M124G, G128L counted along it
Description: as §1, §2

S1P1 mutant V5.47T = molecular target: T8, S1P1 mutant V5.47T (Homo sapiens, UniProt P21453, V209T); test: [35S]GTPγS binding, S1P1 V5.47T; type: biochemical; conditions: S1P-induced, S1P1 V5.47T in RH7777 cells
T8 construct: expressed in transfected cells; host or cells: RH7777
T8 sequence (P21453 whole entry V209T): as the sequence (P21453 whole entry L128G) above, with G128L, V209T counted along it
Description: as §1, §2

S1P1 mutant V5.47L = molecular target: T9, S1P1 mutant V5.47L (Homo sapiens, UniProt P21453, V209L); test: [35S]GTPγS binding, S1P1 V5.47L; type: biochemical; conditions: S1P-induced, S1P1 V5.47L in RH7777 cells
T9 construct: expressed in transfected cells; host or cells: RH7777
T9 sequence (P21453 whole entry V209L): as the sequence (P21453 whole entry L128G) above, with G128L, V209L counted along it
Description: as §1, §2

S1P1 mutant L6.41E = molecular target: T10, S1P1 mutant L6.41E (Homo sapiens, UniProt P21453, L262E); test: [35S]GTPγS binding, S1P1 L6.41E; type: biochemical; conditions: S1P-induced, S1P1 L6.41E in RH7777 cells
T10 construct: expressed in transfected cells; host or cells: RH7777
T10 sequence (P21453 whole entry L262E): as the sequence (P21453 whole entry L128G) above, with G128L, L262E counted along it
Description: as §1, §2

[1] = molecular target: T11, S1P1 double mutant L3.43, 3.44E (Homo sapiens, UniProt P21453, L135E/L136E); test: [35S]GTPγS binding, S1P1 L3.43, 3.44E; type: biochemical; conditions: S1P-induced, S1P1 L3.43, 3.44E in RH7777 cells
T11 construct: expressed in transfected cells; host or cells: RH7777
T11 sequence (P21453 whole entry L135E/L136E): as the sequence (P21453 whole entry L128G) above, with G128L, L135E, L136E counted along it
Description: as §1, §2

S1P1 mutant F5.48G [2] = molecular target: T12, S1P1 mutant F5.48G (Homo sapiens, UniProt P21453, F210G); test: [32P]S1P radioligand binding, RH7777 cells, F5.48G; conditions: radioligand 50 nM, S1P1 F5.48G
T12 construct: expressed in transfected cells
T12 sequence (P21453 whole entry F210G): as the sequence (P21453 whole entry L128G) above, with G128L, F210G counted along it
Description: as §1
The S1P binding assays were done essentially as previously described (28). Transfected RH7777 cells (5×10^5) were incubated at 4° C. in 20 mM Tris-HCl (pH 7.5) binding buffer containing 100 mM NaCl, 15 mM NaF, protease inhibitor cocktail (Sigma-Aldrich), and 0.2 mg/ml essentially fatty-acid free BSA with 1 nM [^32P]S1P in 50 nM S1P for 40 min. Cells were centrifuged and washed twice in binding buffer. The final pellet was resuspended in 2:1 CHCl3/MeOH and the suspension was equilibrated in scintillation fluid overnight. Cell-bound radioactivity was measured by liquid scintillation counting using a Beckman LS5000 TA counter (Beckman Coulter, Irvine, Calif.). Specific binding was defined as the difference between total binding and non-specific binding (in the presence of 2-5 μM cold S1P). Standard errors were computed on the basis of triplicate samples from two simultaneous transfections.

S1P1 mutant F5.48G [3] = molecular target: T12, S1P1 mutant F5.48G; test: [32P]S1P competition binding, HEK-293 cells, F5.48G; conditions: S1P1 F5.48G
Description: (§3) For the competition assays, HEK-293 cells were used. Briefly, 4×10^5 cells were plated in 24-well dishes and allowed to adhere overnight. The cells were then transfected with 0.4 μg of the cDNA using Lipofectamine 2000 (Invitrogen) and the transfection proceeded for 48 h. After washing the cells twice with ice-cold binding buffer (20 mM Tris-HCl, pH 7.4 and 150 mM NaCl), 0.1 nM [^32P]S1P and competing concentrations of cold S1P (1 nM-10 μM), resuspended in binding buffer+4% BSA, were applied to the cells and incubated on ice for 30 min. After washing the cells twice with ice-cold binding buffer+0.4% BSA, the cells were lysed with 0.5% SDS and equilibrated in scintillation fluid. The samples were measured in triplicate.

WT S1P1 = WT S1P1 (Homo sapiens, UniProt P21453); conditions: WT receptor, inventors' system (ref 28); read-out: apparent KD for S1P binding; cited from earlier work
Chain of WT S1P1 (P21453 whole entry): as the sequence (P21453 whole entry L128G) above, with G128L counted along it

S1P1 mutant V6.40A [4] = molecular target: T13, S1P1 mutant V6.40A (Homo sapiens, UniProt P21453, V261A); test: [32P]S1P competition binding, HEK-293 cells, V6.40A; design: expressed in transfected cells; conditions: S1P1 V6.40A
T13 sequence (P21453 whole entry V261A): as the sequence (P21453 whole entry L128G) above, with G128L, V261A counted along it
Description: as §3

S1P1 mutant V6.40A [5] = molecular target: T13, S1P1 mutant V6.40A; test: [35S]GTPγS binding, S1P1 V6.40A; type: biochemical; design: expressed in transfected cells; host or cells: RH7777 (GTPγS); conditions: S1P-induced, S1P1 V6.40A in RH7777 cells
Description: as §1, §2

[6] = competition with cold S1P, read-out: KD + s.d.

T1 sequence (P21453 whole entry T211G): as the sequence (P21453 whole entry L128G) above, with G128L, T211G counted along it

EC50 (S1P1 mutant T5.49G): 5.4 nM | Emax (S1P1 mutant T5.49G; read-out: % WT Emax + s.d.): 107% | EC50 (S1P1 mutant L3.36G): 23 ± 8 nM | Emax (S1P1 mutant L3.36G; read-out: % WT Emax + s.d.): 75% | EC50 (S1P1 mutant C5.44I): 20.4 ± 2.1 nM | Emax (S1P1 mutant C5.44I; read-out: % WT Emax + s.d.): 37% | EC50 (S1P1 mutant T5.45G): 30.9 nM | Emax (S1P1 mutant T5.45G; read-out: % WT Emax + s.d.): 96% | % WT Emax + s.d. (S1P1 mutant L5.51E): ∞ | EC50 + s.d. (S1P1 mutant L5.51E): ∞ | EC50 (S1P1 mutant W6.48A): 13 ± 4.2 nM | Emax (S1P1 mutant W6.48A; read-out: % WT Emax + s.d.): 34 ± 1.5% | EC50 (S1P1 mutant M3.32G): 35 ± 5 nM | Emax (S1P1 mutant M3.32G; read-out: % WT Emax + s.d.): 77% | EC50 (S1P1 mutant V5.47T): 89 nM | Emax (S1P1 mutant V5.47T; read-out: % WT Emax + s.d.): 100% | % WT Emax + s.d. (S1P1 mutant V5.47L): ∞ | EC50 + s.d. (S1P1 mutant V5.47L): ∞ | EC50 (S1P1 mutant L6.41E): 4.1 ± 0.63 nM | Emax (S1P1 mutant L6.41E; read-out: % WT Emax + s.d.): 59% | % WT Emax + s.d. [1]: ∞ | EC50 + s.d. [1]: ∞ | [32P]S1P binding relative to WT (S1P1 mutant F5.48G [2]): > 50 % of the WT | Bmax (S1P1 mutant F5.48G [3]): 2580 fmol | Kd (S1P1 mutant F5.48G [3]; [6]): 20.2 nM | Bmax (S1P1 mutant V6.40A [4]): 2040 fmol | Kd (S1P1 mutant V6.40A [4]; [6]): 27.6 nM | EC50 (S1P1 mutant V6.40A [5]): 14.8 nM | Emax (S1P1 mutant V6.40A [5]; read-out: % WT Emax + s.d.): 69%
SMILES: CCCCCCCCCCCCC/C=C/[C@@H](O)[C@@H](N)COP(=O)(O)O [S1P, Sphingosine 1-phosphate]
Kd (WT S1P1): 36 ± 2 nM
